Where two headings read alike, the source gives them in different places.
Assays:
[1] = first dissolution test in DMSO or water; conditions: for dissolution in the first dissolution test: DMSO or water; for Total volume of DMSO for dissolving the p-TSA derivatives / Total volume of water for dissolving the p-TSA derivatives: first dissolution test, amount for a 3M solution in 0.5 mL, up to 15000 μL; for solubility: thermodynamic from solid
Procedure: Each of the powder of p-TSA derivatives was duplicated, placed in each 15 mL centrifuge tube, followed by adding 200 μL DMSO or 200 μL water and shaking for 10 to 20 seconds for dissolution observation. If the powder was not dissolved, additional DMSO or water was added, and then the mixture was shaken. The tube was left to stand for 10 minutes for observation if the powder was still not dissolved after adding 1 mL DMSO or 1 mL water. If the powder was still not dissolved after adding 5 mL DMSO or 5 mL water, additional 1 mL DMSO or 1 mL water was added, and then the mixture was shaken for 30 seconds. If the powder was still not dissolved after adding 10 mL DMSO or 10 mL water, the tube was left to stand for 12 to 16 hours and observed on the next day. DMSO or water was added into the tube having the undissolved p-TSA derivatives up to 15 mL, followed by shaking for 30 minutes for observation.

[2] = second dissolution test in DMSO or water; type: physicochemical; conditions: for dissolution in the second dissolution test: 100 mg powder, DMSO or water; for Total volume of DMSO for dissolving the p-TSA derivatives / Total volume of water for dissolving the p-TSA derivatives: second dissolution test, 0.1 g powder
Procedure: A second dissolution test was performed for the undissolved p-TSA derivatives. Each of 100 mg p-TSA derivatives powder was placed in each of the scintillation vial, followed by adding 500 μL DMSO or 500 μL water and shaking for 30 seconds for dissolution observation.

[3] = tested on: human non-small-cell lung cancer cell lines H460; assay: SRB growth inhibition of lung cancer cells; type: cell-based; conditions: 48 hours, SRB
Procedure: (§1) After letting to stand for 10 minutes at room temperature, the supernatant of each well was removed, and each well was washed with 200 μL H2O once. […] Each of the plates was then placed in the laminar flow cabinet for 1 hour for air dry. 50 μL 0.4% sulforhodamine B (SRB) dye was added into each well of the 96-well plate. […] Each of the plates was then placed in the laminar flow cabinet for 40 minutes to 1 hour for air dry. 1×Tris-Base solution with pH 7.0 to 7.4 was added to each well of the 96-well plate to dissolve the protein complex formed in the bottom of each well, followed by tapping the 96-well plate, allowing the complex in each well to be dissolved uniformly. Absorption of each well under 515 nm was read. […] Each of the experimental group was performed in triplet.

[4] = tested on: human liver cancer cell lines Hep3B; assay: SRB growth inhibition of liver cancer cells; type: cell-based; conditions: 48 hours, SRB
Procedure: as §1

[5] = Homo sapiens, NCI-H460, 48 h, derivative dissolved in DMSO, read-out: IC50 of H460 in DMSO
[6] = Homo sapiens, Hep3B, 48 h, derivative dissolved in DMSO, read-out: IC50 of Hep3B in DMSO
[7] = Homo sapiens, NCI-H460, 48 h, derivative dissolved in water, read-out: IC50 of H460 in water
[8] = Homo sapiens, Hep3B, 48 h, derivative dissolved in water, read-out: IC50 of Hep3B in water

Row | SMILES | Total volume of DMSO for dissolving the p-TSA derivatives ([1]; DMSO) | Total volume of water for dissolving the p-TSA derivatives ([1]; water) | IC50 [3, 5] [µM] | IC50 [4, 6] [µM] | also measured
1 | Cc1ccc(S(=O)(=O)N2CCC(O)CC2)cc1 [PTSA032] | insoluble in 15000 μL | insoluble in 15000 μL | – | – | Dissolution of p-TSA derivatives (in DMSO and/or water) ([1]; overall result of first and second dissolution tests, category is the column head of Table 3): not dissolved in neither DMSO nor water; Total volume of DMSO for dissolving the p-TSA derivatives [2]: insoluble in 20 ml mL; Total volume of DMSO for dissolving the p-TSA derivatives ([2]; listed as PTSA0032): > 20 mL; Total volume of water for dissolving the p-TSA derivatives [2]: insoluble in 20 mL; Total volume of water for dissolving the p-TSA derivatives ([2]; listed as PTSA0032): > 20 mL
2 | Cc1ccc(S(=O)(=O)N2CC(F)C2)cc1 [PTSA065] | 2500 µL | insoluble in 15000 μL | 1330 | 1450 | –
3 | Cc1ccc(S(=O)(=O)N2CCC[C@H]2CO)cc1 [PTSA033] | 500 µL | insoluble in 15000 μL | 1420 | 1760 | –
4 | COCCNS(=O)(=O)c1ccc(C)cc1 [PTSA042] | 475 µL | insoluble in 15000 μL | 2490 | 2750 | –
5 | Cc1ccc(S(=O)(=O)N[C@@H](CO)C(=O)O)cc1 [PTSA046] | 845 µL | insoluble in 15000 μL | > 10000 | > 10000 | –
6 | Cc1ccc(S(=O)(=O)N2CC(N)C2)cc1.Cl [PTSA074] | 2500 µL | 10000 µL | > 1800 | > 1800 | IC50 [3, 7]: 2220 µM; IC50 [4, 8]: 2130 µM
7 | Cc1ccc(S(=O)(=O)NC(CO)(CO)CO)cc1 [PTSA031] | 700 µL | 10000 µL | 3310 | 4210 | IC50 [3, 7]: > 1000 µM; IC50 [4, 8]: > 1000 µM
8 | Cc1ccc(S(=O)(=O)NCC(=O)O)cc1 [PTSA044] | 600 µL | insoluble in 15000 μL | 7930 | 9110 | –
9 | Cc1ccc(S(=O)(=O)NC(CO)CO)cc1 [PTSA029] | 500 µL | insoluble in 15000 μL | 1970 | 3050 | –
10 | Cc1ccc(S(=O)(=O)N[C@@H](C)CO)cc1 [PTSA026] | 500 µL | insoluble in 15000 μL | 3250 | 3920 | –
11 | Cc1ccc(S(=O)(=O)N2CC(C#N)C2)cc1 [PTSA063] | 900 µL | insoluble in 15000 μL | 1270 | 1300 | –
12 | Cc1ccc(S(=O)(=O)NCC(C)O)cc1 (stereo not drawn) [PTSA024] | 515 µL | insoluble in 15000 μL | 3220 | 3830 | –
13 | Cc1ccc(S(=O)(=O)NC(=O)NS(=O)(=O)c2ccc(C)cc2)cc1 [PTSA017] | 2000 µL | insoluble in 15000 μL | > 3000 | > 3000 | –

Second part, led by results:

Row | Total volume of DMSO for dissolving the p-TSA derivatives ([1]; DMSO) | Total volume of water for dissolving the p-TSA derivatives ([1]; water) | IC50 [3, 5] [µM] | IC50 [4, 6] [µM] | SMILES | also measured
14 | insoluble in 15000 μL | insoluble in 15000 μL | > 174 | > 174 | Cc1ccc(S(=O)(=O)NCCF)cc1 [PTSA049] | dissolution in the first dissolution test [1]: not dissolved in DMSO or water; dissolution in the second dissolution test [2]: dissolved in both of; Total volume of DMSO for dissolving the p-TSA derivatives [2]: 9.5 mL; Total volume of water for dissolving the p-TSA derivatives [2]: insoluble in 20 mL
15 | insoluble in 15000 μL | insoluble in 15000 μL | – | – | CC(=O)NS(=O)(=O)c1ccc(C)cc1 [PTSA002] | dissolution in the first dissolution test [1]: not dissolved in DMSO or water; dissolution in the second dissolution test [2]: dissolved in both of; Total volume of DMSO for dissolving the p-TSA derivatives [2]: 8 mL; Total volume of water for dissolving the p-TSA derivatives [2]: 5.25 mL; IC50 [3, 7]: > 6030 µM; IC50 ([3]; derivative dissolved in DMSO, read-out: IC50 of H460 in DMSO): > 270 µM; IC50 [4, 8]: > 6030 µM; IC50 ([4]; derivative dissolved in DMSO, read-out: IC50 of Hep3B in DMSO): > 270 µM
16 | 4000 µL | insoluble in 15000 μL | 141 | 137 | Cc1ccc(S(=O)(=O)NC2CCN(Cc3ccccc3)CC2)cc1.Cl [PTSA052i] | solubility ([1]; DMSO, organic solvent or mixture): 143 mg/mL; solubility ([1]; water): < 50 mg/mL
17 | 610 µL | insoluble in 15000 μL | 5820 | 4590 | CCOC(=O)NS(=O)(=O)c1ccc(C)cc1 [PTSA014] | –
18 | 4000 µL | 4500 µL | 1270 | 1250 | Cc1ccc(S(=O)(=O)N2CC(CN)C2)cc1.Cl [PTSA068] | IC50 [3, 7]: 1390 µM; IC50 [4, 8]: 1300 µM
19 | 4000 µL | insoluble in 15000 μL | > 2000 | > 2000 | Cc1ccc(S(=O)(=O)N2CC3(COC3)C2)cc1 [PTSA041] | –
20 | 505 µL | insoluble in 15000 μL | 3650 | 4720 | Cc1ccc(S(=O)(=O)NCCOCCO)cc1 [PTSA022] | –
21 | 490 µL | insoluble in 15000 μL | 2830 | 2280 | Cc1ccc(S(=O)(=O)N2CC[C@@H](O)C2)cc1 [PTSA035] | –
22 | 495 µL | insoluble in 15000 μL | 2450 | 2810 | Cc1ccc(S(=O)(=O)NCCCO)cc1 [PTSA021] | –
23 | 530 µL | insoluble in 15000 μL | 2540 | 3400 | Cc1ccc(S(=O)(=O)N2CCC(O)C2)cc1 (stereo not drawn) [PTSA036] | –
24 | 695 µL | insoluble in 15000 μL | 3300 | 4310 | Cc1ccc(S(=O)(=O)NC(C)(CO)CO)cc1 [PTSA030] | –
25 | 560 µL | insoluble in 15000 μL | 3150 | 3540 | Cc1ccc(S(=O)(=O)NC(C)CO)cc1 (stereo not drawn) [PTSA025] | –
26 | insoluble in 15000 μL | insoluble in 15000 μL | – | – | Cc1ccc(S(=O)(=O)N2CC(=NNC(=O)C3CN(S(=O)(=O)c4ccc(C)cc4)C3)C2)cc1 [PTSA073] | dissolution in the first dissolution test [1]: not dissolved in DMSO or water; dissolution in the second dissolution test [2]: dissolved in both of; Total volume of DMSO for dissolving the p-TSA derivatives [2]: 4.04 mL; Total volume of water for dissolving the p-TSA derivatives [2]: insoluble in 20 mL
27 | 2000 µL | insoluble in 15000 μL | > 3000 | > 3000 | Cc1ccc(S(=O)(=O)N[C@@H](C)C(=O)O)cc1 [PTSA045] | –
28 | 505 µL | insoluble in 15000 μL | 1610 | 1840 | COCCCNS(=O)(=O)c1ccc(C)cc1 [PTSA043] | –

Reference: US10485773B2, “Benzenesulfonamide derivatives and method for treating cancer” (GONGWIN BIOPHARM HOLDINGS CO., LTD., priority 2016, dated 2019)
